# Results from US9161935B2 (TEVA PHARMACEUTICAL INDUSTRIES, LTD., priority 2012, dated 2015).
# What was measured:
# [1] = Previous pharmacokinetic studies of laquinimod; type: in vivo; settings: loading dose regimen (double dose on first two days)
# Description: In order to decrease thee time to steady state and potentially decrease time to response, a loading dose regimen described below was used to allow steady state levels to be reached in approximately 6-7 days.
# [2] = system: Subjects with moderate to severe Crohn's disease (CD); assay: Phase IIb trial LAQ-CD-202 (Example 3); type: in vivo, human
# Procedure: Capsules should be swallowed with a glass of water.
# On Days 1 and 2, this dose is administered twice daily (BID) as a loading dose (total daily dose 0.5 mg). Dosing is once daily (QD) from Day 3 onwards.
# On Days 1 and 2, this dose is administered BID as a loading dose (total daily dose 1 mg). Dosing is QD from Day 3 onwards.
# Subjects with moderate to severe Crohn's disease (CD), as determined by a Crohn's Disease Activity Index (CDAI) score of 220-450 (inclusive).
# Remission: subjects with CDAI <150 subjects not designated a Treatment Failure (TF).
# Response 100: reduction of CDAI by at least 100 points compared to Baseline in subjects not designated a Treatment Failure (TF). Any subject with Remission is also considered to have achieved Response 100.
# Response 70: reduction of CDAI by at least 70 points compared to Baseline, in subjects not designated a TF.
# IBDQ Response: An increase from baseline in total IBDQ score of ≧16 points.
# IBDQ Remission: A total IBDQ score of >170 points.
# Treatment duration is 8 weeks. Scheduled in-clinic visits are conducted at Screening, Baseline (Week 0), and at Weeks 1, 2, 4, 6, and 8. Unscheduled visits for safety or for any other reason may be conducted at any time during the study
# A loading dose regimen of the study drug is given during the first 2 days of treatment (Day 1 [Baseline] and Day 2). The first loading dose of the study drug is administered at the site. The loading dose doubles the intended dose for the first 2 days and is administered BID with 12-hour intervals between dosing. Thereafter, starting on Day 3, the dosing regimen consists of the intended dose QD.
# During the study period the CDAI score is assessed in addition to routine safety. Subjects are required to maintain CDAI diaries for each day of the Screening period and, if randomized, on each day of the treatment period. The scores obtained from the 7 consecutive diaries completed prior to the Baseline visit and to each of Weeks 1, 2, 4, 6, and 8 contribute to a total CDAI score at each of these time points.
# The primary efficacy endpoint is the proportion of subjects achieving Remission (CDAI <150) at Week 8 with subjects not designated a Treatment Failure (TF).
# Secondary Efficacy Endpoints: • Proportion of subjects achieving Response 70 at Week 8. • Proportion of subjects achieving Response 100 at Week 8. • Mean change in total IBDQ score from Baseline to Week 8. • Proportion of subjects with an IBDQ Response at Week 8. • Proportion of subjects with IBDQ Remission at Week 8.
# [3] = system: Moderate to severe Crohn's disease (CD) subjects; assay: Phase IIa trial CD-LAQ-201: clinical effect (CDAI remission, response); type: in vivo, human; settings: for effects on remission and response 100: week 8
# Procedure: Overall up to ˜180 Crohn's disease patients are enrolled.
# The capsules were prepared using a blend proportional to the 0.6 mg capsules described in PCT International Application No. PCT/US2007/013721 (WO 2007/146248). The capsules were prepared according to the method described in PCT International Application No. PCT/US2007/013721 (WO 2007/146248), which is hereby incorporated by reference into this application.
# A loading dose regimen of double the maintenance/intended dose was given during the first two days of study drug treatment. Thereafter, starting on day 3, the daily maintenance/intended dose was administered.
# Subjects are required to maintain CDAI diary cards for each day of the screening period and, if randomized, on each day of the treatment and follow-up period. The scores obtained from the seven consecutive diaries completed prior to the baseline visit and to each of weeks 1, 2, 4, 6, 8 and 12 contribute to a total CDAI score at each of the time points.
# Moderate to severe Crohn's disease (CD) subjects as determined by a Crohn's Disease Activity Index (CDAI) score of 220-450 (inclusive).
# Each dose was studied sequentially in a distinct cohort.
# Scheduled in-clinic visits were conducted at screening, baseline and at weeks 1, 2, 4, 6 and 8. […] Subjects who early-discontinues study drug prior to visit week 8 go to follow-up termination visit within 4 weeks (28 days) of study drug discontinuation.
# The study exploratory efficacy outcome measures were chosen according to the draft EMEA guidelines for the treatment of active Crohn's disease/induction of remission (EMEA, 2007) • 1. Proportion of subjects in clinical remission (total CDAI score <150) at weeks 4, 6, 8 and 12 (and were not treatment failures). • 2. Proportion of subjects who respond to treatment (decrease from baseline of at least 100 points in CDAI score ore remission) at week 4, 6, 8 and 12. • 3. Time to remission. • 4. Time to response. • 5. C-Reactive Protein (CRP) change from baseline at weeks 2, 4, 6, 8 and 12. • 6. Fecal calprotectin change from baseline to weeks 2, 4, 6, 8 and 12. • 7. Proportion of subjects with a decrease from baseline of at least 50% in the number of open draining fistulas.
# [4] = in vivo; cited from earlier work
smiles,measurement,setting,value
CCN(C(=O)c1c(O)c2c(Cl)cccc2n(C)c1=O)c1ccccc1 [laquinimod],time to steady state levels,[1],6 to 7 days
same,improve IBDQ score from Baseline by Week 8,[2]; 0.25 mg/day,effective
same,induce IBDQ Response and/or IBDQ Remission by Week 8,[2]; 0.25 mg/day,effective
same,induce Remission (CDAI <150) by Week 8,[2]; 0.25 mg/day,effective
same,induce Response 70 and/or Response 100 by Week 8,[2]; 0.25 mg/day,effective
same,improve IBDQ score from Baseline by Week 8,[2]; 0.5 mg/day,effective
same,induce IBDQ Response and/or IBDQ Remission by Week 8,[2]; 0.5 mg/day,effective
same,induce Remission (CDAI <150) by Week 8,[2]; 0.5 mg/day,effective
same,induce Response 70 and/or Response 100 by Week 8,[2]; 0.5 mg/day,effective
same,effects on remission and response 100,[3]; 0.5 mg/day,effects on remission and response 100 were observed
same,effects on remission and response 100,[3]; 1 mg/day,lower magnitude effects
same,effects on remission and response (conclusion),[3]; 0.5 and 1 mg doses,clinically relevant effects
same,time at which clinical remission was achieved,[3]; laquinimod 0.5 mg/day group,≥ 2 week
same,time at which response 100 was achieved,[3]; laquinimod 0.5 mg/day group,7 days
same,time to clinical remission and response 100 versus pooled placebo,[3]; laquinimod 0.5 mg/day group,earlier than patients in the pooled placebo group
same,oral bioavailability,[4],high
